Here are results for 29 molecules from ChEMBL document CHEMBL1933028, “Discovery of cyclic amine-substituted benzoic acids as PPARα agonists” (Bioorg Med Chem Lett, 2012).

Common to all, as to format: cell-based
Experiment [1] addresses T1, Peroxisome proliferator-activated receptor alpha (Homo sapiens, UniProt Q07869).
T1 sequence (Q07869 whole entry): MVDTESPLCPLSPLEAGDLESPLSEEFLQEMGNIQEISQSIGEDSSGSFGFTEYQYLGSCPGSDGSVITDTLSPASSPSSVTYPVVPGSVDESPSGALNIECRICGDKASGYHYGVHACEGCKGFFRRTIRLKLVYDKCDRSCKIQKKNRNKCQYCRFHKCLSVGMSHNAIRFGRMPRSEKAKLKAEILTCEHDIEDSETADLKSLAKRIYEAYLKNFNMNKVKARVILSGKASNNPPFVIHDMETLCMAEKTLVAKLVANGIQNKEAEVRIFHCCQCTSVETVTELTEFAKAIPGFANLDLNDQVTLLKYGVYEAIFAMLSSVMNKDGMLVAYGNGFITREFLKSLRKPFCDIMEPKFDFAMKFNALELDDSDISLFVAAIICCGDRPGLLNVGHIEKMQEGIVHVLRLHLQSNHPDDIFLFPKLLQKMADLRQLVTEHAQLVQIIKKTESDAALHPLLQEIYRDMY
Put plainly: Transactivation of human PPARalpha expressed in CHO-K1 cells.

Experiment [2] addresses T2, Peroxisome proliferator-activated receptor gamma (Homo sapiens, UniProt P37231).
T2 sequence (P37231 whole entry): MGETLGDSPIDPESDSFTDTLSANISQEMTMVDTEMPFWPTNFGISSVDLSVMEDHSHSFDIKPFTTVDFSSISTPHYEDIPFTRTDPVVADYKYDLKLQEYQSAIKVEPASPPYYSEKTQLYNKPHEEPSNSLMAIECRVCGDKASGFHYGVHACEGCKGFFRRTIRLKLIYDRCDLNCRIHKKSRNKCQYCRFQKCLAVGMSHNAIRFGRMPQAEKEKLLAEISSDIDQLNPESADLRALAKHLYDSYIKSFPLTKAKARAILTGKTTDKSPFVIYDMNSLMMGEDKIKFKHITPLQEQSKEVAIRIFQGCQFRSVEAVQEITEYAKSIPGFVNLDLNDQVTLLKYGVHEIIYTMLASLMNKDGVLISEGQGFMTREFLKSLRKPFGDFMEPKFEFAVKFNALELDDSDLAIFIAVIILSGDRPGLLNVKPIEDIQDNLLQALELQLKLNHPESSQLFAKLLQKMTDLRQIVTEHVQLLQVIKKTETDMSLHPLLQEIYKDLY
Put plainly: Transactivation of human PPARgamma expressed in CHO-K1 cells.

Experiment [3] concerns the target T3, Peroxisome proliferator-activated receptor delta (Homo sapiens, UniProt Q03181).
T3 sequence (Q03181 whole entry): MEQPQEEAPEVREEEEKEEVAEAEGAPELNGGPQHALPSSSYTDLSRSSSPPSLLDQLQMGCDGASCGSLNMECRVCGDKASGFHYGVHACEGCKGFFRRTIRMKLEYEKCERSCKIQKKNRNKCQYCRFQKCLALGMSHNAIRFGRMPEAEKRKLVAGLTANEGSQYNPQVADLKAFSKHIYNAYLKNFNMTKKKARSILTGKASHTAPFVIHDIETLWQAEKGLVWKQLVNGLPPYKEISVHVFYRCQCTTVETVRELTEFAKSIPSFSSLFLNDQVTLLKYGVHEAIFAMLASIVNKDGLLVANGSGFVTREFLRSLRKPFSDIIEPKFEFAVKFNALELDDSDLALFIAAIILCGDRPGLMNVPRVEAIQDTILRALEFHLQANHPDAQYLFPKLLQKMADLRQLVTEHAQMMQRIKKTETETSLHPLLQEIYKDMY
The experiment is described as follows: Transactivation of human PPARdelta expressed in CHO-K1 cells.

In experiment [4] the target is T3, Peroxisome proliferator-activated receptor delta. Put plainly: Transactivation of human PPARdelta expressed in CHO-K1 cells at 30 uM.

A word on the pEC50: it is the negative decadic logarithm of the EC50, by convention in mol/L. Low readings indicate a high EC50, high ones a low EC50.

pEC50: −log10 of the molar value.

Take `Cc1nc(-c2cccc(Cl)c2)sc1C(=O)N[C@H]1CCCN(c2cccc(C(=O)O)c2)C1`: the pEC50 was 7.59 in experiment [1], under 5.28 in experiment [2] and 5.62 in experiment [3].
On the same counts, the results for `Cc1nc(-c2ccccc2Cl)sc1C(=O)N[C@H]1CCCN(c2cccc(C(=O)O)c2)C1` are 7.28, under 5.17 and 5.72.
The matching figures for `COc1ccc(-c2nc(C)c(C(=O)N[C@H]3CCCN(c4cccc(C(=O)O)c4)C3)s2)cc1`: 7.64, under 4.96 and 5.74.
In experiment [1], `Cc1nc(-c2ccc(Cl)cc2)sc1C(=O)NCC1CCN(c2cccc(C(=O)O)c2)CC1` had a pEC50 of under 5.46.
Still for that read-out and setting: the value for `Cc1nc(-c2ccc(Cl)cc2)sc1CC(=O)NC1CCCN(c2cccc(C(=O)O)c2)C1` (centres undefined) was under 4.92.
On to `Cc1nc(-c2ccc(Cl)cc2)sc1C(=O)NCC1CCCN(c2cccc(C(=O)O)c2)C1` (centres undefined), for which the values for the negative logarithm of the EC50 (pEC50) in experiment [1] and in experiment [2] were 6.12 and under 5.31, respectively. Also, in experiment [4], the EC50 entry is recorded as “Not Active”.
`Cc1nc(-c2ccc(Cl)cc2)sc1CNC(=O)C1CCCN(c2cccc(C(=O)O)c2)C1` (centres undefined) showed a pEC50 in experiment [1] of under 4.85.
As to `Cc1nc(-c2ccc(Cl)cc2)sc1C(=O)NCC1CCN(c2cccc(C(=O)O)c2)C1` (centres undefined), the pEC50 in experiment [1] is 6.07; in experiment [2], under 5.00. The EC50 entry in experiment [4] is recorded as “Not Active”.
In the case of `Cc1nc(-c2ccc(Cl)cc2)sc1NC(=O)C1CCCN(c2cccc(C(=O)O)c2)C1` (centres undefined), the pEC50 in experiment [1] is 6.55; in experiment [2], under 4.89. In addition, the EC50 entry in experiment [4] is “Not Active”.
Take `Cc1nc(-c2ccc([N+](=O)[O-])cc2)sc1C(=O)N[C@H]1CCCN(c2cccc(C(=O)O)c2)C1`: the pEC50 in experiment [1] is 7.43; in experiment [2], under 4.89; in experiment [3], under 4.96.
With `Cc1nc(-c2ccc(Cl)cc2)sc1C(=O)N(C)C1CCCN(c2cccc(C(=O)O)c2)C1` (centres undefined), the pEC50 in experiment [1] was 5.47.
Turning to `Cc1nc(-c2ccc(Cl)cc2)sc1/C=C/C1CCCN(c2cccc(C(=O)O)c2)C1` (centres undefined), the negative-log EC50 (pEC50) in experiment [1] was 6.92; in experiment [2], under 5.01; in experiment [3], under 5.09.
On the same counts, the results for `Cc1nc(-c2ccc(F)cc2)sc1C(=O)N[C@H]1CCCN(c2cccc(C(=O)O)c2)C1` are 7.68, under 5.01 and 5.06.
The matching figures for `Cc1nc(-c2ccc(Cl)cc2)oc1C(=O)N[C@H]1CCCN(c2cccc(C(=O)O)c2)C1`: 5.82, under 4.92 and under 4.89.
`Cc1nc(-c2ccc(Cl)cc2)sc1C(=O)NC1CCCN(c2cccc(C(=O)O)c2)C1` (centres undefined): the pEC50 was 8.30 in experiment [1], under 5.00 in experiment [2] and under 5.38 in experiment [3].
Take `Cc1nc(-c2ccc(Cl)cc2)sc1C(=O)N[C@@H]1CCCN(c2cccc(C(=O)O)c2)C1`: the figures for the pEC50 in experiment [1] and in experiment [2] were 5.92 and under 5.00, respectively. The EC50 result in experiment [4] is given as “Not Active”.
On to `Cc1ccc(-c2nc(C)c(C(=O)N[C@H]3CCCN(c4cccc(C(=O)O)c4)C3)s2)cc1`, for which the figures for the negative logarithm of the EC50 (pEC50) in experiment [1], in experiment [2] and in experiment [3] were 8.22, under 4.96 and 5.51, respectively.
The matching figures for `Cc1nc(-c2ccc(Cl)cc2)sc1CCC1CCCN(c2cccc(C(=O)O)c2)C1` (centres undefined): 6.09, under 5.17 and under 5.17.
On to `Cc1sc(-c2ccc(Cl)cc2)nc1C(=O)N[C@H]1CCCN(c2cccc(C(=O)O)c2)C1`, for which, in experiment [1], the negative logarithm of the EC50 (pEC50) was under 5.47.
Still for that read-out and setting: the figure for `O=C(O)c1cccc(N2CCCC(CNC(=O)c3ccc(Oc4ccc(F)cc4)cc3)C2)c1` (centres undefined) is 5.36; for `Cc1nc(-c2ccc(Cl)cc2)sc1C(=O)NC1CCCN(c2ccc(C(=O)O)cc2)C1` (centres undefined) it is 5.82.
Still for that read-out and setting: the figure for `Cc1nc(-c2ccc(Cl)cc2)sc1C(=O)NCC1CCCCN(c2cccc(C(=O)O)c2)C1` (centres undefined) is 6.15; for `Cc1nc(-c2ccc(Cl)cc2)sc1C(=O)NC1CCCN(c2ccccc2C(=O)O)C1` (centres undefined) it is under 5.22.
Turning to `Cc1nc(-c2ccc(Cl)cc2)sc1CNC1CCCN(c2cccc(C(=O)O)c2)C1` (centres undefined), the results for the negative logarithm of the EC50 (pEC50) in experiment [1], in experiment [2] and in experiment [3] were 5.62, under 4.89 and under 4.89, respectively.
With `Cc1nc(-c2ccccc2)sc1C(=O)N[C@H]1CCCN(c2cccc(C(=O)O)c2)C1`, the negative-log EC50 (pEC50) is 7.14 in experiment [1], under 4.72 in experiment [2] and 5.15 in experiment [3].
On the same counts, the results for `Cc1nc(-c2ccc(Cl)cc2)sc1COC1CCCN(c2cccc(C(=O)O)c2)C1` (centres undefined) are 6.60, under 5.01 and under 5.20.
With `COc1ccc(-c2cccc(C(=O)O)c2)cc1CNC(=O)c1ccc(Oc2ccccc2)cc1`, the negative logarithm of the EC50 (pEC50) in experiment [1] is 6.15; in experiment [2] it was 5.23; in experiment [3], 6.33.
The matching figures for `Cc1nc(-c2ccc(Cl)cc2)sc1C(=O)NCC1CN(c2cccc(C(=O)O)c2)CCO1` (centres undefined): 6.09, under 4.82 and under 4.77.
On the same counts, the results for `CC[C@@H](Cc1ccc(OC)c(C(=O)NCc2ccc(Oc3ccc(F)cc3)cc2)c1)C(=O)O` are 7.89, 5.60 and 5.72.
